This is an account of results in patent US20250231185A1, “Coronavirus T Cell Epitopes, Megapools and Uses Thereof” (La Jolla Institute for Immunology, priority 2021, published 2025).

One test relates to CD8+ T cells. The experiment in a line: Meta-analysis of published SARS-CoV-2 CD8 T cell epitope data curated in the IEDB (25 studies). The following applies: CD8-restricted SARS-CoV-2 epitopes; Yes = recognized by 3 or more donors/different studies. The format is cell-based, human.
On to 1287 (CVADYSVLY) [compound 1287], for which the Dominant entry is reported as “Yes (more dominant epitopes are defined by being recognized by 3 or more donors/different studies)”.
Still for that read-out and setting: in the case of 1226 (TEKSNIIRGW) [compound 1226] it was “Yes (more dominant epitopes are defined by being recognized by 3 or more donors/different studies)”; in that of 1228 (TLDSKTQSL) [compound 1228], “Yes (more dominant epitopes are defined by being recognized by 3 or more donors/different studies)”.
Still for that read-out and setting: in the case of 1298 (NLDSKVGGNY) [compound 1298] it was “Yes (more dominant epitopes are defined by being recognized by 3 or more donors/different studies)”.
Same read-out and setting: the same measure for 1204 (YTNSFTRGVY) [compound 1204]: “Yes (more dominant epitopes are defined by being recognized by 3 or more donors/different studies)”.
For the substance 1150 (FTSDYYQLY) [compound 1150], the Dominant result is reported as “Yes (more dominant epitopes are defined by being recognized by 3 or more donors/different studies)”.
Still for that read-out and setting: in the case of 1173 (QLRARSVSPK) [compound 1173] it was “Yes (more dominant epitopes are defined by being recognized by 3 or more donors/different studies)”; in that of 1133 (VYFLQSINF) [compound 1133], “Yes (more dominant epitopes are defined by being recognized by 3 or more donors/different studies)”.
Same read-out and setting: the same measure for 1157 (HLVDFQVTI) [compound 1157]: “Yes (more dominant epitopes are defined by being recognized by 3 or more donors/different studies)”; for 1180 (VFITLCFTLK) [compound 1180]: “Yes (more dominant epitopes are defined by being recognized by 3 or more donors/different studies)”.

Still in this test, the particulars now being: CD8S (D) Megapool, antigen S; dominant = recognized in 3 or more donors/studies.
Regarding 1519 (KWPWYIWLGF) [compound 1519], the Dominant result is recorded as “Yes (more dominant epitopes are defined by being recognized by 3 or more donors/different studies)”.
On the same count and under the same terms, in the case of 1511 (YHLMSFPQSA) [compound 1511] it was “Yes (more dominant epitopes are defined by being recognized by 3 or more donors/different studies)”; in that of 1513 (APHGVVFLHV) [compound 1513], “Yes (more dominant epitopes are defined by being recognized by 3 or more donors/different studies)”.
Take 1508 (VLNDILSRL) [compound 1508]: the Dominant result is “Yes (more dominant epitopes are defined by being recognized by 3 or more donors/different studies)”.
The same measure, in the same setting: in the case of 1474 (TLDSKTQSL) [compound 1474] it was “Yes (more dominant epitopes are defined by being recognized by 3 or more donors/different studies)”.
As to 1498 (FTISVTTEIL) [compound 1498], the Dominant entry is given as “Yes (more dominant epitopes are defined by being recognized by 3 or more donors/different studies)”.
The same measure, in the same setting: the same measure for 1506 (TQNVLYENQK) [compound 1506]: “Yes (more dominant epitopes are defined by being recognized by 3 or more donors/different studies)”; for 1483 (CVADYSVLY) [compound 1483]: “Yes (more dominant epitopes are defined by being recognized by 3 or more donors/different studies)”; for 1491 (GPKKSTNLV) [compound 1491]: “Yes (more dominant epitopes are defined by being recognized by 3 or more donors/different studies)”.
For the substance 1494 (SPRRARSVA) [compound 1494], the Dominant entry was “Yes (more dominant epitopes are defined by being recognized by 3 or more donors/different studies)”.
Turning to 1500 (TECSNLLLQY) [compound 1500], the Dominant entry was “Yes (more dominant epitopes are defined by being recognized by 3 or more donors/different studies)”.
Still for that read-out and setting: in the case of 1501 (LLQYGSFCT) [compound 1501] it was “Yes (more dominant epitopes are defined by being recognized by 3 or more donors/different studies)”.
Still for that read-out and setting: the same measure for 1471 (RFDNPVLPF) [compound 1471]: “Yes (more dominant epitopes are defined by being recognized by 3 or more donors/different studies)”; for 1480 (WTAGAAAYY) [compound 1480]: “Yes (more dominant epitopes are defined by being recognized by 3 or more donors/different studies)”; for 1517 (NLNESLIDL) [compound 1517]: “Yes (more dominant epitopes are defined by being recognized by 3 or more donors/different studies)”.
The same measure, in the same setting: in the case of 1470 (STQDLFLPFF) [compound 1470] it was “Yes (more dominant epitopes are defined by being recognized by 3 or more donors/different studies)”; in that of 1478 (TPINLVRDL) [compound 1478], “Yes (more dominant epitopes are defined by being recognized by 3 or more donors/different studies)”.

The same test, now with this note: CD8 epitopes; Yes = recognized by 3 or more donors/different studies.
In the case of 467 (HLRIAGHHLGR) [compound 467], the Dominant entry is “Yes (more dominant epitopes are defined by being recognized by 3 or more donors/different studies)”.
Same read-out and setting: the same measure for 497 (YYRRATRRIR) [compound 497]: “Yes (more dominant epitopes are defined by being recognized by 3 or more donors/different studies)”; for 427 (FLFLTWICL) [compound 427]: “Yes (more dominant epitopes are defined by being recognized by 3 or more donors/different studies)”.
Still for that read-out and setting: in the case of 425 (GTITVEELK) [compound 425] it was “Yes (more dominant epitopes are defined by being recognized by 3 or more donors/different studies)”; in that of 498 (RIRGGDGKMK) [compound 498], “Yes (more dominant epitopes are defined by being recognized by 3 or more donors/different studies)”; in that of 420 (SLVKPSFYV) [compound 420], “Yes (more dominant epitopes are defined by being recognized by 3 or more donors/different studies)”.
On the same count and under the same terms, in the case of 471 (TVATSRTLSYYK) [compound 471] it was “Yes (more dominant epitopes are defined by being recognized by 3 or more donors/different studies)”; in that of 493 (FPRGQGVPI) [compound 493], “Yes (more dominant epitopes are defined by being recognized by 3 or more donors/different studies)”; in that of 491 (NTASWFTAL) [compound 491], “Yes (more dominant epitopes are defined by being recognized by 3 or more donors/different studies)”.
In the case of 476 (ATSRTLSYY) [compound 476], the Dominant entry was “Yes (more dominant epitopes are defined by being recognized by 3 or more donors/different studies)”.
Same read-out and setting: the same measure for 494 (NTNSSPDDQIGYY) [compound 494]: “Yes (more dominant epitopes are defined by being recognized by 3 or more donors/different studies)”.

Staying with this test, now noted: SARS-CoV-2-derived CD8 epitopes; dominant = recognized by 3 or more donors/different studies.
816 (SLRPDTRYVL) [compound 816]: the Dominant result was “Yes (more dominant epitopes are defined by being recognized by 3 or more donors/different studies)”.
On the same count and under the same terms, the same measure for 877 (KLKDCVMYA) [compound 877]: “Yes (more dominant epitopes are defined by being recognized by 3 or more donors/different studies)”; for 810 (FSAVGNICY) [compound 810]: “Yes (more dominant epitopes are defined by being recognized by 3 or more donors/different studies)”.
Still for that read-out and setting: the same measure for 896 (SEFSSLPSY) [compound 896]: “Yes (more dominant epitopes are defined by being recognized by 3 or more donors/different studies)”.
On the same count and under the same terms, the same measure for 737 (SLDTYPSLETI) [compound 737]: “Yes (more dominant epitopes are defined by being recognized by 3 or more donors/different studies)”.
Consider 745 (AYILFTRFFYV) [compound 745], for which the Dominant result was “Yes (more dominant epitopes are defined by being recognized by 3 or more donors/different studies)”.
